# “Also recorded” adds a separate entry of the source. Residues, ends and D or L forms follow the SMILES beside them.
# What was measured:
# [1] = biological target: T1, Recombinant human furin (Homo sapiens, UniProt P09958); assay: In vitro fluorogenic furin activity assay; assay type: biochemical; settings: for inhibition of furin activity in the drug screen: fluorogenic substrate BOC-Arg-Val-Arg-Arg-AMC, FIG. 9 / FIG. 22; for fluorescence (furin activity): single drug at 110 and 220 μM, 50-minute time course
# T1 construct: purchased New England BioLabs (Ipswich, MA)
# Experimental: Recombinant human furin was purchased from New England BioLabs (Ipswich, MA). Fluorogenic furin convertase substrate BOC-Arg-Val-Arg-Arg-AMC (AMC=7-Amino-4-methylcoumarin) from Enzo Life Sciences (Farmingdale, NY) and HIV aspartyl protease inhibitors (Sigma) were dissolved in DMSO. Protease inhibitory′ drugs were prepared at a. concentration of 10 mg/mL and stored at room temperature. Furin Inhibitor II chloromethylketone was purchased from EMD Millipore (Darmstadt, Germany).
# The assay was performed at pH 7.5 in buffer 50 mM HEPES, 1 mM CaCl2, 1 mM β-mercaptoethanol, 0.2 mg/mL BSA. In a total volume of 100 μL, the final concentration per well of substrate enzyme was 10 μM and 1 U/well respectively. All assays were performed at 37° C. in a 96-well fluorometer (BioTek Synergy H4 Hybrid reader) with an excitation wavelength of 345 nm and an emission wavelength of 420 nm.
# Inhibitory small molecules were incubated with enzyme for 1 hour at 37° C. prior to addition of substrate to initiate the reaction. All assays were performed in triplicate. Inhibition constants were calculated based on methods previously described (Lineweaver, H. & Burk, D. The Determination of Enzyme Dissociation Constants. J. Am. Chem. Soc. 56, 658-666 (1934)). […]
# The molecular docking studies predicted that PIs bind to the catalytic site of furin as well as to a putative allosteric site on furin (FIGS. 7A and 7B). A fluorescence assay was used to monitor furin activity. Furin has substrate specificity for the multi-basic consensus amino-acid sequence of Arg-X-Lys/Arg-Arg (RXRR) at the cleavage site, where X represents a neutral, polar amino acid. Peptide substrates including the furin cleavage sequence having an attached fluorescent tag were used. A fluorescence tag is quenched when it is attached to the peptide, but when furin cleaves the peptide the fluorophore is released and is able to fluoresce. The inhibitory effect of the PIs in this assay can be characterized through a positive control, in which furin actively cleaves substrate without the presence of an inhibitor.
# [2] = tested on: hepcidin-25 in Huh7 cell media; assay: Hepcidin-25 quantification in Huh7 cell media by mass spectrometry; assay type: cell-based, human; settings: 18 hrs; for production of mature secreted hepcidin: single PI at 15 μM, IL-6 and BMP-9 10 ng/mL each
# Experimental: Detection of Hepcidin-25 isoform was completed using an HPLC-MS/MS method with an Eksigent NanoLC HPLC with a Thermo Scientific C-18 reverse-phase column coupled via Thermo Scientific Nanospray ESI soft ionization source to a Thermo Scientific LTQ/Orbitrap XL mass spectrometer (MS). Samples were prepared for MS using an in-house developed enrichment and purification protocol. […]
# The mass spectrometer was tuned and calibrated to a pure human recombinant hepcidin-25 solution. […] Peaks with isotopic envelopes corresponding to [M+5H+] and [M+6H+], 651.8 m/z and 543.3 m/z for 2-iodoacetamide, 818.5 m/z and 682.2 m/z for 2-iodo-N-(phenylethyl)-acetamide respectively, were detected in all samples and were not observed in the protocol blank. […] Quantification was completed using in-house developed ion chromatogram extractor software that allowed positive isolation of unfragmented peaks by m/z and chromatographic elution windows for total spectral ion count summation. Samples were intensity normalized to hepcidin-25 detected in healthy culture media for each dataset.
# Sample preparation consisted of three phases: 1) ultra-filtration to remove large abundant proteins and media debris; 2) earboxamidomethylation of cysteine residues; and 3) 2-phase extraction of lipid substituents and subsequent concentration by speed-vac. […] Data was recorded at a resolution of 100,000 over the course of a two-hour method. Detected intensities were totaled using in-house developed ion-chromatogram extractor software. […]
# [3] = tested on: pSTAT3 in Huh7 cells; assay: STAT3 phosphorylation Western blot after IL-6 induction, Huh7; assay type: cell-based, human; settings: for inhibition of STAT3 phosphorylation (in words): 0-60 μM, IL-6 50 ng/mL
# Experimental: For the STAT3 and Smad4 experiments, the cells were seeded at a density of 1.5×10^5 per flask in 5 mL of culture medium and allowed to reach 70% confluency. At time 0, the cells received fresh media and were treated with nelfinavir, ritonavir, darunavir or indinavir, at concentrations ranging from 0 to 60 μM for three hours, and then induced with IL-6 or BMP-9 (Cat, #200-06 and 120-07, PeproTech, Rocky Hill, NJ) 50 ng/mL, for 30 minutes.
# (§1) After treatments, cultured cells were washed with ice-cold PBS and lysed by adding ice-cold RIP A buffer containing 50 mM Tris-HCl (pH 8), 150 mM NaCl, 1% Triton X-100, 0.5% sodium deoxycholate, 0.1% SDS, 5 mM EDTA and IX protease/phosphatase cocktail inhibitor (Thermo Fisher Scientific, Waltham, MA), Cells were scraped off the flask and were further disrupted by passing the solution through a 21 gauge needle. The extracts were then transferred to a microfuge tube and centrifuged for 20 min at 12000 rpm. Protein concentration was determined with a Lowry assay and equal amounts of the resulting protein (30 μg) were separated by 8% SDS-PAGE and then transferred to a nitrocellulose membrane (Bio-Rad).
# After transfer, the membranes were blocked in Odyssey™ Blocking Buffer (927-40100, LI-COR Biosciences, Lincoln, NE) at room temperature, for 1 hour. Primary antibodies were diluted in blocking solution containing 0.2% Tween and incubated overnight at 4° C. with polyclonal antibody to ferroportin (rabbit, 1:1000 dilution; PAS-2293, Thermo Scientific, Waltham, MA), phospho-STAT3 Tyr705 and STAT3 (1:1000 dilution, (Cat. #9145 and 9139 respectively, Cell Signaling Technology, Beverly, MA). Blots were normalized by probing the membranes with either a p-actin or glucose-6-phosphate dehydrogenase polyclonal antibody (Cat. #3700 and 8866 respectively, Cell Signaling Technology, Beverly, MA). After incubation and washing with PBS-T, the membranes where incubated in the dark, in blocking solution with 0.2% Tween with IRDye 800CW Goat anti-Rabbit IgG and IRDye® 680RD Donkey anti-Mouse IgG (1:10000, LI-COR Biosciences, Lincoln, NE) for 1 hour at room temperature. The proteins were detected and visualized by fluorescence using the Odyssey Classic (LI-COR Biosciences, Lincoln, NE). Densitometry analysis of specific bands was performed with the Image Studio software.
# To assess whether PIs abrogate the IL-6 signaling cascade, STATS phosphorylation (pSTAT3) was measured in the hepatocyte cell lines. PIs were incubated with both Huh7 and HepG2 cell lines for 3 hours, before the addition of IL-6 (50 ng/mL) for 30 minutes. Concentrations of PIs ranged from 0-60 μM. Following 30 minutes of IL-6 induction, cells wore immediately lysed, and proteins harvested for Western blot analysis. Untreated hepatocyte control cells are designated as healthy.
# [4] = tested on: HAMP gene expression in Huh7 hepatocytes; assay: HAMP gene expression (RT-qPCR), Huh7; assay type: cell-based, human; settings: IL-6/BMP-9 induced Huh7, 18 hrs; ND 15 μM, CMK 25 μM
# Experimental: Cells were seeded at a density of 1.5×10^6 per T25 flask in 5 mL culture medium and allowed to reach 50% confluency. At time 0, the cells received fresh media and were then simultaneously treated with either nelfinavir or darunavir alone, or nelfinavir and darunavir at varying concentrations (2.5/2.5 μM, 5/5 μM and 7.5/7.5 μM) and induced with IL-6 and BMP-9 (10 ng/mL each) for 18 hours. […] Control groups not being induced with cytokines, are designated as ‘Healthy’.
# RNA was isolated by washing tissue culture in 1×PBS, before applying QIAzol lysis reagent (Cat #79306). RNA was then purified on RNeasy mini kit columns (Cat #74104) from Qiagen. All samples were treated with Qiagen DNase (Cat #79254). Two micrograms of RNA were used for reverse transcription and subsequent SYBR® Green ROX real time PCR for the genes of interest. Reverse transcription kits (Cat #330401) and SYBR Green real-time PCR master mixes (Cat #330523) were from Qiagen (Louisville, KY). […]
# Real time quantitative PCR was performed on an Applied Biosciences StepOne plus instrument and analyzed with StepOne software v2.3. The relative amounts of transcripts from each gene were normalized to reference gene GAPDH and calculated as follows: ΔΔCT=the average ΔCT of sample B−the average ΔCT of sample B, and their fold difference=2−^ΔΔCT.
# [5] = tested on: Female Lewis rats (PG-LPS model of ACI); assay: PG-LPS rat model of anemia of chronic inflammation; assay type: in vivo; settings: for serum hepcidin, lower than in PG-LPS rats / serum prohepcidin, higher than in PG-LPS rats: ELISA; for Hb (g/dL) Day 0 / Hb (g/dL) Day 62: nelfinavir with ritonavir by oral gavage
# [6] = tested on: prohepcidin in Huh7 cell media; assay: Prohepcidin secretion into Huh7 cell media; assay type: cell-based, human
# Experimental: (§2) Cells were seeded at a density of 1.5×10^6 per T25 flask in 5 mL culture medium and allowed to reach 50% confluency. At time 0, the cells received fresh media and were then simultaneously treated with either nelfinavir or darunavir alone, or nelfinavir and darunavir at varying concentrations (2.5/2.5 μM, 5/5 μM and 7.5/7.5 μM) and induced with IL-6 and BMP-9 (10 ng/mL each) for 18 hours. After 18 hours, 2 mL of media were collected, aliquoted and flash frozen for mass spectrometry (MS) analysis. Control groups not being induced with cytokines, are designated as ‘Healthy’.
# [7] = tested on: ferroportin in HepG2 cells; assay: Ferroportin Western blot, HepG2; assay type: cell-based, human; settings: HepG2, IL-6/BMP-9 10 ng/mL each; ND 15 μM, CMK 25 μM
# Experimental: as §2
# as §1, with “(Bio-Rad). […]” for “(Bio-Rad).”
# [8] = PG-LPS rats, listed as nelfinavir
# [9] = Treated Control (no PG-LPS), n = 4
# T1 sequence (P09958 108-794): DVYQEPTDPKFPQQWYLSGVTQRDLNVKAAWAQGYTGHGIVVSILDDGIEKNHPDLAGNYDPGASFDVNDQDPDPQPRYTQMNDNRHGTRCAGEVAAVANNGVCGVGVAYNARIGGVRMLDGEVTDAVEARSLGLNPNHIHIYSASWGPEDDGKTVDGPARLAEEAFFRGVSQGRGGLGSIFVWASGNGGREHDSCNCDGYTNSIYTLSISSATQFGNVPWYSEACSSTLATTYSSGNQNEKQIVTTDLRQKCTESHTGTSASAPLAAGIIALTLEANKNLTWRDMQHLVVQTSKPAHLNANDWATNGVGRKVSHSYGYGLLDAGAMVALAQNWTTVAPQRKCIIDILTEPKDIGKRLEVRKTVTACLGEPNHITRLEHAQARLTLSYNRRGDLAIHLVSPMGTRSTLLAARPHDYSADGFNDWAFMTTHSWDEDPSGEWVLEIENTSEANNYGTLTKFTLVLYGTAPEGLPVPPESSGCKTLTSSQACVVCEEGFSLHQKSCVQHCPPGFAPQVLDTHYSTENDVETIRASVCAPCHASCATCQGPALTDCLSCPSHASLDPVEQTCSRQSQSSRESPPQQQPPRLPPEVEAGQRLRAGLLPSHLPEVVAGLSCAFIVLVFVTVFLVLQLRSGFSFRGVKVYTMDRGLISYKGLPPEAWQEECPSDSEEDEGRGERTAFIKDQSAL
compound,measurement,setting,value
"CC(C)CN(C[C@@H](O)[C@H](Cc1ccccc1)NC(=O)O[C@H]1CO[C@H]2OCC[C@H]21)S(=O)(=O)c1ccc(N)cc1 [Darunavir, [(1R, 5S, 6R)-2,8-dioxabicyclo[3.3.0]oct-6-yl] N-[(2S, 3R)-4-[(4-aminophenyl)sulfonyl-(2-methylpropyl)amino]-3-hydroxy-1-phenyl-butan-2-yl] carbamate]",type of inhibition (Lineweaver-Burk),[1],uncompetitive inhibition
same,inhibition of furin activity in the drug screen,[1],three best inhibitors
same,fluorescence (furin activity),[1],decreased fluorescence
same,production of mature secreted hepcidin,[2],back to basal levels
same,inhibition of STAT3 phosphorylation (in words),[3],no signs of pSTAT3 inhibition; also recorded: did not show any statistically significant inhibition; also recorded: Neither darunavir nor indinavir inhibits STAT3 phosphorylation
CC(C)c1nc(CN(C)C(=O)N[C@H](C(=O)N[C@@H](Cc2ccccc2)C[C@H](O)[C@H](Cc2ccccc2)NC(=O)OCc2cncs2)C(C)C)cs1 [Ritonavir],inhibition of STAT3 phosphorylation (in words),[3],not concentration dependent
same,inhibition of STAT3 phosphorylation (in words),[3]; listed as ritonavir,dose dependent inhibition
same,inhibition of STAT3 phosphorylation,[3]; all concentrations tested,~25%
same,average pSTAT3 inhibition,[3]; doses 5-30 μM,27%
CC(C)(C)NC(=O)[C@@H]1CN(Cc2cccnc2)CCN1C[C@@H](O)C[C@@H](Cc1ccccc1)C(=O)N[C@H]1c2ccccc2C[C@H]1O [Indinavir],inhibition of STAT3 phosphorylation (in words),[3],no signs of pSTAT3 inhibition; also recorded: did not show any statistically significant inhibition; also recorded: Neither darunavir nor indinavir inhibits STAT3 phosphorylation
Cc1c(O)cccc1C(=O)N[C@@H](CSc1ccccc1)[C@H](O)CN1C[C@H]2CCCC[C@H]2C[C@H]1C(=O)NC(C)(C)C [Nelfinavir],type of inhibition (Lineweaver-Burk),[1],competitive inhibition
same,inhibition of furin activity in the drug screen,[1],three best inhibitors
same,fluorescence (furin activity),[1],decreased fluorescence
same,production of mature secreted hepcidin,[2],back to basal levels
same,inhibition of STAT3 phosphorylation (in words),[3],inhibiting STAT3 phosphorylation in a dose dependent manner; also recorded: concentration dependent manner; also recorded: dose dependent inhibition
same,inhibition at 5 µM,"[3]; Homo sapiens, Huh-7, 5 μM, 3 hrs before IL-6 50 ng/mL 30 min",27%
same,inhibition at 15 µM,"[3]; Homo sapiens, Huh-7, 15 μM, 3 hrs before IL-6 50 ng/mL 30 min",46%
same,HAMP gene expression,[4],significant inhibitory effect
same,"iron in bone marrow, PG-LPS rats",[5]; ICP-MS,increased significantly
same,"iron in serum, PG-LPS rats",[5]; ICP-MS,increased significantly
same,"liver iron content, PG-LPS rats",[5]; PG-LPS PI treated group,dropped
same,more serum iron than PG-LPS treated rats,[5]; PG-LPS rats,~25%
same,recovery of hemoglobin and hematocrit,[5]; PG-LPS rats,did not demonstrate a recovery
same,"serum hepcidin, lower than in PG-LPS rats",[5]; PG-LPS rats,~2 fold
same,"serum prohepcidin, higher than in PG-LPS rats",[5]; PG-LPS rats,~2.5 fold
same,"serum hepcidin, lower than in PG-LPS rats",[5]; [8],approximately 2 fold
same,"serum prohepcidin, higher than in PG-LPS rats",[5]; [8],approximately 2.5 fold
same,recovery of hemoglobin and hematocrit,[5]; [8],did not significantly recover
same,increase of prohepcidin,"[5]; PG-LPS rats, ritonavir co-administered",148%
same,inhibition of mature hepcidin production,"[5]; PG-LPS rats, therapeutic serum concentration 4 ng/mL, ritonavir co-administered",47%
same,transcription of HAMP mRNA in liver,"[5]; PG-LPS treated animals, qPCR",did not show any statistically significant changes
same,Hb (g/dL) Day 0,[5]; [9],14.4 ± 0.4 g/dL
same,Hb (g/dL) Day 62,[5]; [9],15.2 ± 0.2 g/dL
same,HCT (%) Day 0,"[5]; Treated Control, n = 4",41.5 ± 0.9%
same,HCT (%) Day 62,"[5]; Treated Control, n = 4",44.6 ± 2.7%
same,MCV (fl) Day 0,"[5]; Treated Control, n = 4",55.3 ± 0.7 fL
same,MCV (fl) Day 62,"[5]; Treated Control, n = 4",49.7 ± 0.5 fL
same,RDW (%) Day 0,"[5]; Treated Control, n = 4",12.6 ± 0.1%
same,RDW (%) Day 62,"[5]; Treated Control, n = 4",37.2 ± 0.7%
same,HCT (%) Day 0,"[5]; Treated PG-LPS, n = 7",41.5 ± 2.4%
same,HCT (%) Day 62,"[5]; Treated PG-LPS, n = 7",37.6 ± 3.9%
same,MCV (fl) Day 0,"[5]; Treated PG-LPS, n = 7",55.8 ± 1.5 fL
same,MCV (fl) Day 62,"[5]; Treated PG-LPS, n = 7",46.7 ± 0.6 fL
same,RDW (%) Day 0,"[5]; Treated PG-LPS, n = 7",13.6 ± 2.5%
same,RDW (%) Day 62,"[5]; Treated PG-LPS, n = 7",42.8 ± 1.2%
same,Hb (g/dL) Day 0,"[5]; Treated PG-LPS, n = 7",14.1 ± 1.1 g/dL
same,Hb (g/dL) Day 62,"[5]; Treated PG-LPS, n = 7",13.0 ± 1.1 g/dL
same,"liver ferroportin, PG-LPS rats (in words)",[5]; Western blot,significantly higher
same,"increase in liver ferroportin, healthy rats",[5]; healthy treated rats,~3 fold
same,"hepcidin levels, healthy rats",[5]; healthy treated vs healthy,slightly higher
same,"liver iron content, healthy rats",[5]; healthy treated vs healthy,dropped significantly
same,"prohepcidin levels, healthy rats",[5]; healthy treated vs healthy,much higher
same,"serum iron, healthy rats",[5]; healthy treated vs healthy,not significantly different
same,increase of ferroportin expression in animal liver,[5]; ritonavir co-administered,2.5 fold
CCCCCCCCCC(=O)N[C@@H](CCCN=C(N)N)C(=O)N[C@H](C(=O)N[C@@H](CCCCN)C(=O)N[C@@H](CCCN=C(N)N)C(=O)CCl)C(C)C [Dec-RVKR-CMK] (HELM PEPTIDE1{[CCCCCCCCCC(=O)[*:2]].R.V.K.R.[ClC[*:1]]}$$$$V2.0),inhibition of furin activity in the drug screen,[1],full inhibition of furin
same,hepcidin-25 in media of cytokine-induced cells,"[2]; IL-6/BMP-9 10 ng/mL each, ND 15 μM (7.5 μM each), CMK 25 μM",statistically significant drop in mature hepcidin-25 is not observed
same,HAMP gene expression,[4],this phenomenon was not observed
same,prohepcidin in media of cytokine-induced cells (in words),"[6]; IL-6/BMP-9 10 ng/mL each, 18 hr, ND 7.5 μM each, CMK 25 μM",significantly raised
same,"secreted prohepcidin concentration, healthy cell groups",[6]; no cytokine induction,No significant difference
same,increase of ferroportin expression compared to IL-6/BMP-9 control,[7],109%

# — patent publication US12208107B2, “Method and compositions for the treatment of anemia through the inhibition of furin” (Brigham Young University, priority 2016, dated 2025)
